Laboratory results as given in PubChem BioAssay (NCI).
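GI50 marks 50% less growth. TGI: total growth inhibition.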

Columns and labels:
Assay in all cases: DTP human tumour cell line panel, 384-well format
[1] = system: SK-MEL-2 melanoma
[2] = system: A498 renal
[3] = system: SNB-75 CNS
[4] = system: PC-3 prostate
[5] = system: HCT-116 colon
[6] = system: HOP-92 NSCLC
[7] = system: MOLT-4 leukemia
[8] = system: SN12C renal
[9] = system: HOP-62 NSCLC
[10] = system: M14 melanoma
[11] = system: HS 578T breast
[12] = system: MDA-MB-435 melanoma
[13] = system: 786-0 renal
[14] = system: COLO 205 colon
[15] = system: OVCAR-4 ovarian
[16] = system: HCC-2998 colon
[17] = system: HT29 colon
[18] = system: CAKI-1 renal
[19] = system: NCI-H226 lung
[20] = system: A549 NSCLC
[21] = system: RPMI-8226 leukemia
[22] = system: NCI-H322M lung
[23] = system: UACC-62 melanoma
[24] = system: BT-549 breast
[25] = system: ACHN renal
[26] = system: SF-539 CNS
[27] = system: SF-295 CNS
[28] = system: NCI/ADR-RES ovarian
[29] = system: MCF7 breast
[30] = system: HCT-15 colon
[31] = system: SNB-19 CNS
[32] = system: MDA-MB-231 breast
[33] = system: KM12 colon
[34] = system: TK-10 renal
[35] = system: SK-MEL-5 melanoma
[36] = system: MDA-MB-468 breast
[37] = system: HL-60(TB) leukemia
[38] = system: K-562 leukemia
[39] = system: IGROV1 ovarian
[40] = system: LOX IMVI melanoma
[41] = system: SK-OV-3 ovarian
[42] = system: SK-MEL-28 melanoma
[43] = system: SR leukemia
[44] = system: NCI-H23 lung
[45] = system: NCI-H460 NSCLC
[46] = system: NCI-H522 lung
[47] = system: RXF 393 renal
[48] = system: OVCAR-5 ovarian
[49] = system: SF-268 CNS
[50] = system: EKVX NSCLC
[51] = system: SW-620 colon
[52] = system: MALME-3M melanoma
[53] = system: U251 glioblastoma
[54] = system: OVCAR-3 ovarian
[55] = system: UACC-257 melanoma
[56] = system: UO-31 renal
[57] = system: DU-145 prostate
[58] = system: T-47D breast

`O=C(c1ccc(/C=C/c2n[nH]c3ccccc23)cc1)N1CCNCC1` showed a GI50 [1] of 14.5 µM, a TGI [1] of 27.7 µM and a GI50 [2] of 13.2 µM. The TGI [2] was 26 µM, the GI50 [3] was 3.4 µM and the TGI [3] was 9.95 µM. The GI50 [4] was 5.28 µM, the TGI [4] was 21.2 µM and the GI50 [5] was 1.77 µM. The TGI [5] was 18.6 µM, the GI50 [6] was 2.32 µM and the TGI [6] was 11 µM. For the same compound, the GI50 [7] was 0.252 µM, the TGI [7] was 1.27 µM and the GI50 [8] was 1.88 µM. It also gave a TGI [8] of 10.6 µM, a GI50 [9] of 2.32 µM and a TGI [9] of 16.5 µM. For the same compound, the GI50 [10] was 4.3 µM, the TGI [10] was 17 µM and the GI50 [11] was 2.47 µM. For the same compound, the TGI [11] was 7.17 µM, the GI50 [12] was 2.01 µM and the TGI [12] was 13.3 µM. The GI50 [13] was 10.7 µM, the TGI [13] was 22.7 µM and the GI50 [14] was 0.635 µM. For the same compound, the TGI [14] was 3.89 µM, the GI50 [15] was 21.7 µM and the TGI [15] was 37.5 µM. For the same compound, the GI50 [16] was 11 µM, the TGI [16] was 27.4 µM and the GI50 [17] was 3.1 µM. It also gave a TGI [17] of 14.6 µM, a GI50 [18] of 3.37 µM and a TGI [18] of 16.4 µM. For the same compound, the GI50 [19] was 1.32 µM, the TGI [19] was 4.89 µM and the GI50 [20] was 1.96 µM. For the same compound, the TGI [20] was 19.9 µM, the GI50 [21] was 1.17 µM and the TGI [21] was 11.1 µM. For the same compound, the GI50 [22] was 11.7 µM, the TGI [22] was 27.8 µM and the GI50 [23] was 7.66 µM. The TGI [23] was 20.8 µM, the GI50 [24] was 0.597 µM and the TGI [24] was 2.29 µM. For the same compound, the GI50 [25] was 4.29 µM, the TGI [25] was 18.3 µM and the GI50 [26] was 1.53 µM. The TGI [26] was 5.75 µM, the GI50 [27] was 2.12 µM and the TGI [27] was 17.3 µM. The GI50 [28] was 13.8 µM, the TGI [28] was 26.9 µM and the GI50 [29] was 2.9 µM. It also gave a TGI [29] of 16.3 µM, a GI50 [30] of 3.41 µM and a TGI [30] of 18.9 µM. It also gave a GI50 [31] of 12.1 µM, a TGI [31] of 27.7 µM and a GI50 [32] of 3.41 µM. It also gave a TGI [32] of 17.9 µM, a GI50 [33] of 0.118 µM and a TGI [33] of 10.8 µM. For the same compound, the GI50 [34] was 4.91 µM, the TGI [34] was 22.7 µM and the GI50 [35] was 5.38 µM. For the same compound, the TGI [35] was 19.4 µM, the GI50 [36] was 1.07 µM and the TGI [36] was 16.6 µM. It also gave a GI50 [37] of 0.416 µM, a TGI [37] of 15 µM and a GI50 [38] of 0.214 µM. It also gave a TGI [38] of 1.08 µM, a GI50 [39] of 4.66 µM and a TGI [39] of 18.2 µM. For the same compound, the GI50 [40] was 2.99 µM, the TGI [40] was 10.8 µM and the GI50 [41] was 7.59 µM. The TGI [41] was 21 µM, the GI50 [42] was 11.7 µM and the TGI [42] was 24 µM. The GI50 [43] was 0.18 µM, the TGI [43] was 0.32 µM and the GI50 [44] was 2.69 µM. It also gave a TGI [44] of 13.6 µM, a GI50 [45] of 0.543 µM and a TGI [45] of 10.9 µM. It also gave a GI50 [46] of 0.529 µM, a TGI [46] of 5.51 µM and a GI50 [47] of 6.96 µM. For the same compound, the TGI [47] was 19.7 µM, the GI50 [48] was 3.48 µM and the TGI [48] was > 100 µM. For the same compound, the GI50 [49] was 4.18 µM, the TGI [49] was 19.5 µM and the GI50 [50] was 3.23 µM. For the same compound, the TGI [50] was 14.7 µM, the GI50 [51] was 3.1 µM and the TGI [51] was 14.1 µM. For the same compound, the GI50 [52] was 2.7 µM, the TGI [52] was 10.8 µM and the GI50 [53] was 11.2 µM. It also gave a TGI [53] of 23.7 µM, a GI50 [54] of 11.6 µM and a TGI [54] of 24.5 µM. It also gave a GI50 [55] of 5.94 µM, a TGI [55] of 17.8 µM and a GI50 [56] of 2.69 µM. For the same compound, the TGI [56] was 17.2 µM, the GI50 [57] was 5.22 µM and the TGI [57] was 20.7 µM. For the same compound, the GI50 [58] was 17.7 µM and the TGI [58] was 31.9 µM.
